Tests used:
[1] = target: T1, Alpha-2A adrenergic receptor (Homo sapiens, UniProt P08913); format: functional, cell-based
T1 sequence (P08913 whole entry): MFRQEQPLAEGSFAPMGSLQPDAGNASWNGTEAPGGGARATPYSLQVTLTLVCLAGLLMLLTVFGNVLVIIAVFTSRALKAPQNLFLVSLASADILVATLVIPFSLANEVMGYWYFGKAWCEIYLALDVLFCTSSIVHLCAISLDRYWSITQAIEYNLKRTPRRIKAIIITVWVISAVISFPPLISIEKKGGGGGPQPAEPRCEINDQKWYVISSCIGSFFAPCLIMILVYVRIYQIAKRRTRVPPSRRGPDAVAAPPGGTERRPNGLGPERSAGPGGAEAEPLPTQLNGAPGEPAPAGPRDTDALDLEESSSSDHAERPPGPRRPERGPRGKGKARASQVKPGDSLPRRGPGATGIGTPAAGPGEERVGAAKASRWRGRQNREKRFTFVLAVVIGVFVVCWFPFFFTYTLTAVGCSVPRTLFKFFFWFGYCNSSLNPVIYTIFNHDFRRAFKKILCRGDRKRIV

[2] = target: T2, Alpha-2C adrenergic receptor (Homo sapiens, UniProt P18825); format: functional
T2 sequence (P18825 whole entry): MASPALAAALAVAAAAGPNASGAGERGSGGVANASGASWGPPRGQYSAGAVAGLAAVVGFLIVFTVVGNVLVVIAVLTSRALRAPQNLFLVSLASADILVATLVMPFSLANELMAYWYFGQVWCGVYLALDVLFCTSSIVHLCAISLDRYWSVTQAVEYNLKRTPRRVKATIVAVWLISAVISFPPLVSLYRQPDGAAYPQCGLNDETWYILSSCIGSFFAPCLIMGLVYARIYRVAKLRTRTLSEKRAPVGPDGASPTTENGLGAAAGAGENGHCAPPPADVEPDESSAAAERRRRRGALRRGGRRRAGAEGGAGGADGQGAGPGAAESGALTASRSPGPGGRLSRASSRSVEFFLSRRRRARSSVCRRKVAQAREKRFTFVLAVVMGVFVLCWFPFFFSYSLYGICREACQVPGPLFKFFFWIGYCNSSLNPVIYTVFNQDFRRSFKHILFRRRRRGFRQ

B2 bradykinin receptor = target: T3, B2 bradykinin receptor (Homo sapiens, UniProt P30411)
T3 sequence (P30411 whole entry): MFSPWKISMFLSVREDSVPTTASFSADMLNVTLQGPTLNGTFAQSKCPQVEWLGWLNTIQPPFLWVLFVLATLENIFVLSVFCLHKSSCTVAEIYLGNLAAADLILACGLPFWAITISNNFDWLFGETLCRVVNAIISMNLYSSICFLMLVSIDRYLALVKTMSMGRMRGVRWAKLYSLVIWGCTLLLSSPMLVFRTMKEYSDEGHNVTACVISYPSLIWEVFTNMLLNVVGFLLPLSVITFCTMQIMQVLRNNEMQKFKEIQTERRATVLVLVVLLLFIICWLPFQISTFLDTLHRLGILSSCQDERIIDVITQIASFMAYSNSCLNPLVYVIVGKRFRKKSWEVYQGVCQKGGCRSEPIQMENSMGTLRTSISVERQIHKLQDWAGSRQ

[3] = target: T4, Cholecystokinin receptor type A (Homo sapiens, UniProt P32238)
T4 sequence (P32238 whole entry): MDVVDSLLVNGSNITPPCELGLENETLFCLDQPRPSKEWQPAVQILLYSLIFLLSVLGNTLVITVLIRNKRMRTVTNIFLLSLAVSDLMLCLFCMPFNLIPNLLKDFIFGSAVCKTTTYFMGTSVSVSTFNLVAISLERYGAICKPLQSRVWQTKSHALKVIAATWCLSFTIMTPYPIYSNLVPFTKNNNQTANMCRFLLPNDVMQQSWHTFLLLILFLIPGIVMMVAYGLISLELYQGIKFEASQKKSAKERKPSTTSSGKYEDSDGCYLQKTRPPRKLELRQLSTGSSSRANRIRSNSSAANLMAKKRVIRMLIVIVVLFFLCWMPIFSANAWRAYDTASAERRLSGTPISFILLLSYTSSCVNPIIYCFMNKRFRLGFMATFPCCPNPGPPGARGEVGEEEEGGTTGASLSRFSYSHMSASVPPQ

[4] = target: T5, Muscarinic acetylcholine receptor M2 (Homo sapiens, UniProt P08172); format: functional, cell-based
T5 sequence (P08172 whole entry): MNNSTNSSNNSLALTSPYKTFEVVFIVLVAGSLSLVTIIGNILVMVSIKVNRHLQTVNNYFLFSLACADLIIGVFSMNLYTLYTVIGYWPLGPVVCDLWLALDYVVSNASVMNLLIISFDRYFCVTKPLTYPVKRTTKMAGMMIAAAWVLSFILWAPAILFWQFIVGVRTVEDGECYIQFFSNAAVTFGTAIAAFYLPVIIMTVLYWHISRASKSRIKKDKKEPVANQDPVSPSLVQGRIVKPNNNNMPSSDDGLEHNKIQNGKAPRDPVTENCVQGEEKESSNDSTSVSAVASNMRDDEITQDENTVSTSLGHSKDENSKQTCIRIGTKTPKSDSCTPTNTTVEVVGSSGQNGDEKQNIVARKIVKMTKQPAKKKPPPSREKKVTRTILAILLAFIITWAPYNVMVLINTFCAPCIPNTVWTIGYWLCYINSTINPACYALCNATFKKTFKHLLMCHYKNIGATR

D(1A) dopamine receptor = D(1A) dopamine receptor (Homo sapiens, UniProt P21728); format: functional, cell-based
[5] = target: 5-hydroxytryptamine receptor 2B (Homo sapiens, UniProt P41595); format: functional, cell-based
[6] = target: Voltage-gated inwardly rectifying potassium channel KCNH2 (Homo sapiens, UniProt Q12809); format: functional; settings: read-out: AC50
[7] = target: T6, Equilibrative nucleoside transporter 1 (Homo sapiens, UniProt Q99808)
T6 sequence (Q99808 whole entry): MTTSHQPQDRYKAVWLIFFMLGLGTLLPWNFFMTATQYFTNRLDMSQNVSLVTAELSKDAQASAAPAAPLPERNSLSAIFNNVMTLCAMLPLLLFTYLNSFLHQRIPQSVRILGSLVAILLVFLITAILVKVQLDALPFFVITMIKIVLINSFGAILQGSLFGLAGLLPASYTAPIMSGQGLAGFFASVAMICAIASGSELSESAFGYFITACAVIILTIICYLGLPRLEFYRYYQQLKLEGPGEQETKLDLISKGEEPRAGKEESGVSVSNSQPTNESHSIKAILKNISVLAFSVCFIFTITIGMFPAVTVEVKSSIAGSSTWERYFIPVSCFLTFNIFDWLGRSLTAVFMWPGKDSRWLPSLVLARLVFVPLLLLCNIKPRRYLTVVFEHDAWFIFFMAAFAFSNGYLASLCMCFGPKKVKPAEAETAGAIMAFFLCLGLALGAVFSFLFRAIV
Also: assay procedure not described here.

D(1A) dopamine receptor, sequence (P21728 whole entry): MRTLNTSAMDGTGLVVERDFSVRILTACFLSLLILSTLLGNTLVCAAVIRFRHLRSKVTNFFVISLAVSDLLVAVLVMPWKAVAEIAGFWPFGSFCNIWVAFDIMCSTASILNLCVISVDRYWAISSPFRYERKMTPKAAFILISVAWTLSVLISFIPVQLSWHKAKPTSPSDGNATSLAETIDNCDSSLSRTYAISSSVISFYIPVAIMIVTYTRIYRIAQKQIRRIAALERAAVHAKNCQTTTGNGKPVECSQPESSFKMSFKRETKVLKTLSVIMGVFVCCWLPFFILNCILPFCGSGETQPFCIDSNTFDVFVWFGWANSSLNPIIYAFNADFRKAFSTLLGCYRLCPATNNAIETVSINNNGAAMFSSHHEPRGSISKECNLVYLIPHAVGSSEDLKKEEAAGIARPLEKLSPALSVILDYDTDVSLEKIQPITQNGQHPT
5-hydroxytryptamine receptor 2B, sequence (P41595 whole entry): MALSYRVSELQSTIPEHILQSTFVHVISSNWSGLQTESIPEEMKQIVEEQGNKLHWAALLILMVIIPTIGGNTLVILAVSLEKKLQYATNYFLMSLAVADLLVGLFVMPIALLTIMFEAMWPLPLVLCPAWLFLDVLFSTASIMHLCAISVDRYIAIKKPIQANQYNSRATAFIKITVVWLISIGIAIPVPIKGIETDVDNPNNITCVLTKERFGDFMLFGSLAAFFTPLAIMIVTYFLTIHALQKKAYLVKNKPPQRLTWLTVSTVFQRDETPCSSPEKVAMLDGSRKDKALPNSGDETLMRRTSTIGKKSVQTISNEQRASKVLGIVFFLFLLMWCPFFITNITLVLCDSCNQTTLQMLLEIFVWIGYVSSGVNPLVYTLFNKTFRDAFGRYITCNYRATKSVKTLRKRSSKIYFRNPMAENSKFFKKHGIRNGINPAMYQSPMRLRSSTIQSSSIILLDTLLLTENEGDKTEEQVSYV
Voltage-gated inwardly rectifying potassium channel KCNH2, sequence (Q12809 whole entry): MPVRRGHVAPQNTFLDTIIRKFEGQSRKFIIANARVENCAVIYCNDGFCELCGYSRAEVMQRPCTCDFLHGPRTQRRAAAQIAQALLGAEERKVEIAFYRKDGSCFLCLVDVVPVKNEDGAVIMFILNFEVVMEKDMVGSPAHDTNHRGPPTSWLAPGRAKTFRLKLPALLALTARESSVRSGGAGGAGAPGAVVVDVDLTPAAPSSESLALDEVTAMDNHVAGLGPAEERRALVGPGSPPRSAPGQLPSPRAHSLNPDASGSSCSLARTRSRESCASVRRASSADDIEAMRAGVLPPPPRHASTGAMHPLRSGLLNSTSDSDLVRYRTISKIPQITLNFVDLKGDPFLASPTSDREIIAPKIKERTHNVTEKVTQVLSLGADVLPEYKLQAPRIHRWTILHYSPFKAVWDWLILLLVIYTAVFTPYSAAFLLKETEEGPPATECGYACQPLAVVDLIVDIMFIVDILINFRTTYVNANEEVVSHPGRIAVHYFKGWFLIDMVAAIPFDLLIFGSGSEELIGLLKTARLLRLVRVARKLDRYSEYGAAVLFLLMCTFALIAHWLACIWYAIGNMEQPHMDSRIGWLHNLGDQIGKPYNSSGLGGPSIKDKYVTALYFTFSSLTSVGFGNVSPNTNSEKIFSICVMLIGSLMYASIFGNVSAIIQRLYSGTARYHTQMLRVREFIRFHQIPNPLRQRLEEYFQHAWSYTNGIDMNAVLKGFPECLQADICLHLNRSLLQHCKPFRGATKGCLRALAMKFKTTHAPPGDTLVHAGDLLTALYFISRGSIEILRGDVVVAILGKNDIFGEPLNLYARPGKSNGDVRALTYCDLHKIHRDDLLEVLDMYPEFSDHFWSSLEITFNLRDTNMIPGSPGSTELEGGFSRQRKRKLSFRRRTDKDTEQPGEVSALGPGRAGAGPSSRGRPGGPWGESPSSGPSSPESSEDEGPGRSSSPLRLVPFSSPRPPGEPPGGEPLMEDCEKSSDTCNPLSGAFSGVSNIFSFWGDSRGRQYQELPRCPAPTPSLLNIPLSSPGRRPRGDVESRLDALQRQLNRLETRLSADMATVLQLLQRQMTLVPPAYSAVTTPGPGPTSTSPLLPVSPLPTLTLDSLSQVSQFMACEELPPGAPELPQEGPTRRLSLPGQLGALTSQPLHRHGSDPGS

COc1cc2c(N)nc(N3CCN(C(=O)OCC(C)(C)O)CC3)nc2c(OC)c1OC [TRIMAZOSIN]
AC50 [1]: > 30 µM
AC50 [2]: 13 µM
AC50 (B2 bradykinin receptor): > 30 µM
AC50 [3]: > 30 µM
AC50 [4]: > 30 µM
AC50 (D(1A) dopamine receptor): > 30 µM
AC50 [5]: > 30 µM
AC50 [6]: 17 µM

O=C(O)/C=C/c1ccc(Cn2ccnc2)cc1 [OZAGREL]
AC50 [1]: > 30 µM
AC50 [2]: > 30 µM
AC50 (B2 bradykinin receptor): > 30 µM
AC50 [3]: > 30 µM
AC50 [4]: > 30 µM
AC50 (D(1A) dopamine receptor): > 30 µM
AC50 [5]: > 30 µM
AC50 [6]: > 30 µM

CC(C[N+](C)(C)C)OC(N)=O (configuration not stated) [BETHANECHOL]
AC50 [1]: > 10 µM
AC50 [2]: > 10 µM
AC50 (B2 bradykinin receptor): > 10 µM
AC50 [3]: > 10 µM
AC50 (D(1A) dopamine receptor): > 10 µM
AC50 [5]: > 10 µM
AC50 [6]: > 30 µM
AC50 [7]: > 10 µM

COc1ccc(CCN(C)CCCC(C#N)(c2cc(OC)c(OC)c(OC)c2)C(C)C)cc1OC (configuration not stated) [GALLOPAMIL]
AC50 [1]: 25 µM
AC50 [2]: 7.6 µM
AC50 (B2 bradykinin receptor): > 30 µM
AC50 [3]: > 30 µM
AC50 [4]: > 30 µM
AC50 (D(1A) dopamine receptor): > 30 µM
AC50 [5]: 0.86 µM
AC50 [6]: 1.9 µM

Nc1nc(N)nc(-c2cc(Cl)ccc2Cl)n1 [IRSOGLADINE]
AC50 [1]: > 30 µM
AC50 [2]: > 30 µM
AC50 (B2 bradykinin receptor): > 30 µM
AC50 [3]: > 30 µM
AC50 [4]: > 30 µM
AC50 (D(1A) dopamine receptor): > 30 µM
AC50 [5]: 22 µM
AC50 [6]: > 30 µM

C/C(O)=C(\C#N)C(=O)Nc1ccc(C(F)(F)F)cc1 [TERIFLUNOMIDE]
AC50 [1]: > 30 µM
AC50 [2]: > 30 µM
AC50 [3]: > 30 µM
AC50 [4]: > 30 µM
AC50 (D(1A) dopamine receptor): > 30 µM
AC50 [5]: > 30 µM
AC50 [6]: > 30 µM
AC50 [7]: > 30 µM

CCc1c(Cl)c(O)c(Cl)c(O)c1C(=O)O[C@H]1[C@H](O)[C@H](OC)[C@H](OC/C2=C\C=C\C[C@H](O)/C(C)=C/[C@H](CC)[C@@H](O[C@@H]3OC(C)(C)[C@@H](OC(=O)C(C)C)[C@H](O)[C@@H]3O)/C(C)=C/C(C)=C/C[C@@H]([C@@H](C)O)OC2=O)O[C@@H]1C [FIDAXOMICIN]
AC50 [2]: > 30 µM
AC50 (B2 bradykinin receptor): > 30 µM
AC50 [5]: > 30 µM
AC50 [6]: > 30 µM
AC50 [7]: 3.6 µM

CCCCCCOc1ccccc1C(N)=O [EXALAMIDE]
AC50 [1]: > 30 µM
AC50 [2]: > 30 µM
AC50 (B2 bradykinin receptor): > 30 µM
AC50 [3]: > 30 µM
AC50 (D(1A) dopamine receptor): > 30 µM
AC50 [5]: 1.1 µM
AC50 [6]: > 30 µM
AC50 [7]: > 30 µM

N#Cc1ccc([C@H]2CCc3cncn32)c(F)c1 [OSILODROSTAT]
AC50 [2]: > 10 µM
AC50 [3]: > 10 µM
AC50 [6]: 19.7 µM
AC50 [7]: > 10 µM

NCC(=O)CCC(=O)O [AMINOLEVULINIC ACID]
AC50 [1]: > 30 µM
AC50 [2]: > 30 µM
AC50 (B2 bradykinin receptor): > 30 µM
AC50 [3]: > 30 µM
AC50 [4]: > 30 µM
AC50 (D(1A) dopamine receptor): > 30 µM
AC50 [6]: > 30 µM

— ChEMBL document CHEMBL5291721, “A preclinical secondary pharmacology resource illuminates target-adverse drug reaction associations of marketed drugs” (Nat Commun, 2023)
